Consider 21 compounds from patent publication USRE37781E1, “Substituted cyclic carbonyls and derivatives thereof useful as retroviral protease inhibitors” (DuPont Pharmaceuticals Company, priority 1991, dated 2002).

The target in assay [1] is single-chain tethered dimer of HIV protease (Human immunodeficiency virus 1, UniProt P04585). The experiment in a line: biochemical. Type of assay: biochemical. Set-up: fused on or other part: A second copy of the same protease unit is joined to the first by a short peptide tether, giving one polypeptide.
The next assay has as its system HIV-1 (RF) in MT-2 cells. The assay can be described thus: microbe, parasite or virus in culture. The class given is cell-based. The procedure, abridged:
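Read-out: gag and pol viral RNA captured by 5′-biotinylated oligonucleotides on streptavidin-coated wells, detected with alkaline phosphatase-linked reporter oligonucleotides, calibrated against BH10 in vitro transcripts. Virus stocks (RF, MN, IIIB) come from H9 cultures; MT-2 host cells kept in RPMI 1640, 5% FCS.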

Where [2] appears, read: Table 2d, HIV protease inhibition, HPLC method, read-out: HPLC K1.
[3] abbreviates: read-out: HPLC K1, Table 2d, class symbols.
[4] abbreviates: Human immunodeficiency virus 1, MT2, 48 h, Table 2d, class symbols, read-out: IC90.
Setting [5] is: read-out: HPLC K1, Table 2d, HIV protease inhibition, HPLC method.
[6] abbreviates: Human immunodeficiency virus 1, MT2, 48 h, Table 2d, HIV RNA assay, read-out: IC90.

Where two headings read alike, the source gives them in different places.

In the case of `O=S1(=O)N(Cc2ccccc2)C(Cc2ccccc2)C(O)C(O)C(Cc2ccccc2)N1Cc1ccccc1` (stereo not drawn) [23I], the Ki in assay [1] (Table 2m, read-out: HPLC Ki) was 10 to 1000 nM. Besides, the 90% effect concentration (IC90) result with HIV-1 (RF) in MT-2 cells (Table 2m) is on record as “+++ (+++=<10 μg/mL)”.

`N#Cc1cccc(CN2C(=S)N(Cc3cccc(C#N)c3)C(Cc3ccccc3)C(O)C(O)C2Cc2ccccc2)c1` (stereo not drawn) [Example 27K]: in assay [1] (Table 2q, read-out: HPLC Ki), the Ki was under 10 nM. Also, in the assay with HIV-1 (RF) in MT-2 cells (Table 2q), the IC90 result is given as “+++ (+++=<10 μg/mL)”.

For `CCOP1(=O)N[C@H](Cc2ccccc2)[C@H](O)[C@@H](O)[C@@H](Cc2ccccc2)N1` (stereo partly drawn) [28F], the Ki in assay [1] (Table 2r, read-out: Ki HPLC) is over 1000 nM. Further, the IC90 result in the assay with HIV-1 (RF) in MT-2 cells (Table 2r) is recorded as “++/+ (The ++/+ is used in the cases where an IC90 was determined to be >50 μg/mL)”.

Turning to `O=C(NCCN1CCOCC1)c1cccc(CN2C(=O)N(CC3CC3)C(Cc3ccccc3)C(O)C(O)C2Cc2ccccc2)c1` (stereo not drawn) [15YB], the Ki in assay [1] (setting [2]) is under 10 nM. In addition, the IC90 entry with HIV-1 (RF) in MT-2 cells (Table 2d, HIV RNA assay) is recorded as “+++ (+++=<10 μg/mL)”.

Take `CCC(O)CN1C(=O)NC(Cc2ccccc2)C(O)C(O)C1Cc1ccccc1` (stereo not drawn) [Example 15VL]: the Ki in assay [1] (setting [3]) is over 1000 nM. Moreover, the IC90 with HIV-1 (RF) in MT-2 cells (setting [4]) was over 50 µg/mL.

As to `NCCCCCCN1C(=O)N(Cc2ccccc2)C(Cc2ccccc2)C(O)C(O)C1Cc1ccccc1` (stereo not drawn) [Example 12B], in assay [1] (setting [3]), the Ki is 10 to 1000 nM. The concentration for an effect of 90% (IC90) in the assay with HIV-1 (RF) in MT-2 cells (setting [4]) was over 100 µg/mL.

In the case of `CCC(=O)c1cccc(CN2C(=O)N(Cc3cccc(C(=O)CC)c3)C(Cc3ccccc3)C(O)C(O)C2Cc2ccccc2)c1` (stereo not drawn) [Example 15XN], the Ki in assay [1] (setting [5]) is under 10 nM. The IC90 with HIV-1 (RF) in MT-2 cells (setting [6]) was under 10 µg/mL.

Consider `NC(=O)Cc1cccc(CN2C(=O)N(Cc3cccc(CC(N)=O)c3)C(Cc3ccccc3)C(O)C(O)C2Cc2ccccc2)c1` (stereo not drawn) [15DV], for which the Ki in assay [1] (setting [5]) is under 10 nM. In the assay on HIV-1 (RF) in MT-2 cells (setting [6]), the 90% effect concentration (IC90) is under 10 µg/mL.

Turning to `CNc1cccc(CN2C(=O)N(Cc3ccc(CO)cc3)C(Cc3ccccc3)C(O)C(O)C2Cc2ccccc2)c1` (stereo not drawn) [15M], the Ki in assay [1] (setting [3]) is under 10 nM. The IC90 with HIV-1 (RF) in MT-2 cells (setting [4]) is under 10 µg/mL.

Take `Cl.Cl.O=C(Nc1cccc(CN2C(=O)N(Cc3cccc(NC(=O)c4ccncc4)c3)C(Cc3ccccc3)C(O)C(O)C2Cc2ccccc2)c1)c1ccncc1` (stereo not drawn) [Example 15AC]: the Ki in assay [1] (setting [2]) is under 10 nM. Also, the IC90 result with HIV-1 (RF) in MT-2 cells (Table 2d, HIV RNA assay) is “+++ (+++=<10 μg/mL)”.

For the compound `O=C1N(Cc2cccc(C=NCCO)c2)C(Cc2ccccc2)C(O)C(O)C(Cc2ccccc2)N1Cc1cccc(C2NCCO2)c1` (stereo not drawn) [Example 9K], the Ki in assay [1] (Table 2d, class symbols, read-out: HPLC K1) lay in the range of 10 to 1000 nM. In addition, in the assay with HIV-1 (RF) in MT-2 cells (Table 2d, class symbols), the concentration for an effect of 90% (IC90) entry is “+++ (+++=<10 μg/mL)”.

Consider `COC(=O)c1cccc(CN2C(=O)N(Cc3cccc(C(=O)OC)c3)C(Cc3ccc(F)c(F)c3)C(O)C(O)C2Cc2ccc(F)c(F)c2)c1` (stereo not drawn) [20Y], for which the Ki in assay [1] (Table 2i, read-out: HPLC Ki) is under 10 nM. Further, the IC90 result in the assay with HIV-1 (RF) in MT-2 cells (Table 2i) was “+++ (+++=<10 μg/mL)”.

In the case of `O=C1N(CCCCC(Br)CBr)C(Cc2ccccc2)C(O)C(O)C(Cc2ccccc2)N1CCCCC(Br)CBr` (stereo not drawn) [Example 13F], the Ki in assay [1] (setting [3]) lay within 10 to 1000 nM. The IC90 in the assay with HIV-1 (RF) in MT-2 cells (setting [4]) is over 100 µg/mL.

For the compound `O=C1N(Cc2cccc(OCc3ccccc3)c2)C(Cc2ccccc2)C(O)C(O)C(Cc2ccccc2)N1Cc1cccc([N+](=O)[O-])c1` (stereo not drawn) [11P], in assay [1] (setting [3]), the Ki was under 10 nM. Also, the 90% effect concentration (IC90) in the assay with HIV-1 (RF) in MT-2 cells (setting [4]) is under 10 µg/mL.

In the case of `O=C1NC(Cc2ccccc2)C(O)C(O)C(Cc2ccccc2)N1CCOCCO` (stereo not drawn) [Example 12T], in assay [1] (setting [3]), the Ki was 10 to 1000 nM. Also, the IC90 in the assay on HIV-1 (RF) in MT-2 cells (setting [4]) was over 100 µg/mL.

Regarding `O=C1N(CCCCC(O)CO)C(Cc2ccccc2)C(O)C(O)C(Cc2ccccc2)N1CCCCC(O)CO` (stereo not drawn) [Example 13I], the Ki in assay [1] (setting [3]) was under 10 nM. The concentration for an effect of 90% (IC90) in the assay on HIV-1 (RF) in MT-2 cells (setting [4]) is over 100 µg/mL.

Turning to `CNC(=O)c1cccc(CN2C(=O)N(Cc3cccc(C(=O)NC)c3)C(Cc3ccccc3)C(O)C(O)C2Cc2ccccc2)c1` (stereo not drawn) [11H], in assay [1] (setting [3]), the Ki was under 10 nM. Further, the 90% effect concentration (IC90) in the assay on HIV-1 (RF) in MT-2 cells (setting [4]) was under 10 µg/mL.

As for `O=S1(=O)N(Cc2cccc(CO)c2)C(Cc2ccccc2)C(O)C(O)C(Cc2ccccc2)N1Cc1cccc(CO)c1` (stereo not drawn) [23N], in assay [1] (Table 2m, read-out: HPLC Ki), the Ki is under 10 nM. In the assay with HIV-1 (RF) in MT-2 cells (Table 2m), the IC90 result is given as “+++ (+++=<10 μg/mL)”.

As to `CCNCc1ccc(C(=O)OCc2ccc(CN3C(=O)N(Cc4ccc(COC(=O)c5ccc(CNCC)cc5)cc4)[C@H](Cc4ccccc4)[C@H](O)[C@@H](O)[C@H]3Cc3ccccc3)cc2)cc1.Cl` [29V], the Ki in assay [1] (Table 2s, read-out: Ki (HPLC)) is over 1000 nM. Also, the 90% effect concentration (IC90) result in the assay with HIV-1 (RF) in MT-2 cells (Table 2s) is recorded as “+++ (+++=<10 μg/mL)”.

For `O=C1NC(Cc2ccccc2)C(O)C(O)C(Cc2ccccc2)N1Cc1cccc(-c2cc[nH]n2)c1` (stereo not drawn) [Example 15BX], the Ki in assay [1] (setting [5]) was under 10 nM. Besides, in the assay on HIV-1 (RF) in MT-2 cells (setting [6]), the IC90 was under 10 µg/mL.

As for `CNC(=O)OCCCCCN1C(=O)N(CCCCCOC(=O)NC)C(Cc2ccccc2)C(O)C(O)C1Cc1ccccc1` (stereo not drawn) [15EK], the Ki in assay [1] (setting [2]) lay in the range of 10 to 1000 nM. For the same compound, the IC90 result with HIV-1 (RF) in MT-2 cells (Table 2d, HIV RNA assay) is “++ (++=10 to 100 μg/mL)”.
